The numbers were not newly measured in patent US20100267624A1 (priority 2007, published 2010), which cites them from elsewhere.

Counter-ions that a name gives are not always drawn.

Take `CN[C@H](CC(C)C)C(=O)N[C@H]1C(=O)N[C@@H](CC(N)=O)C(=O)N[C@H]2C(=O)N[C@H]3C(=O)N[C@H](C(=O)N[C@H](C(=O)O)c4cc(O)cc(O)c4-c4cc3ccc4O)[C@H](O)c3ccc(c(Cl)c3)Oc3cc2cc(c3O[C@@H]2O[C@H](CO)[C@@H](O)[C@H](O)[C@H]2O[C@H]2C[C@](C)(N)[C@H](O)[C@H](C)O2)Oc2ccc(cc2Cl)[C@H]1O` [Vancomycin Hydrochloride]: under “organic solvents”, the “solubility in organic solvents” value is recorded as “poorly soluble”. Moreover, the solubility in water result (water) is reported as “very soluble”.
